{"source": "ChEMBL document CHEMBL3351438", "about": "“Further optimization of the M5 NAM MLPCN probe ML375: tactics and challenges” (Bioorg Med Chem Lett, 2015)", "key": {"[1]": {"biological_target": "T1, Muscarinic acetylcholine receptor M5 (Homo sapiens, UniProt P08912)", "T1 sequence (P08912 whole entry)": "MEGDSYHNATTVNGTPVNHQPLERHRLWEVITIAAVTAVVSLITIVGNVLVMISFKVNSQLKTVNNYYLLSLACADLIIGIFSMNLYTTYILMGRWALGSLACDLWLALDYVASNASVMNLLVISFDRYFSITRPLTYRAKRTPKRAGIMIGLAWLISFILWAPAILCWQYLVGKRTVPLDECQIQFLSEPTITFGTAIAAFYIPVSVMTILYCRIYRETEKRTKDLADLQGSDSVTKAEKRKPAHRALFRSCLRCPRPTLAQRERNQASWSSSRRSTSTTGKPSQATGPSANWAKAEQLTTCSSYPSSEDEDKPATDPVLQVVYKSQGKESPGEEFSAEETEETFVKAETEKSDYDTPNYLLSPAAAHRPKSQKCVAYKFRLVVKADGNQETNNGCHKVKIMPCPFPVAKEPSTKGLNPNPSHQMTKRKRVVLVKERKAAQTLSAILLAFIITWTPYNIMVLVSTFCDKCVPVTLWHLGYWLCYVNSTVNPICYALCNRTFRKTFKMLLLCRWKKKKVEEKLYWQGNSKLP", "assay": "Negative allosteric modulation of human muscarinic acetylcholine receptor M5 expressed in CHO cells assessed as inhibition of acetylcholine-induced calcium mobilization incubated for 150 secs prior to acetylcholine induction by Fluo4AM staining-based fluorescence assay"}, "[2]": {"tested_on": "Plasma", "assay": "Fraction unbound in Sprague-Dawley rat plasma", "assay_type": "ADME, cell-free"}, "[3]": {"tested_on": "Plasma", "assay": "Fraction unbound in human plasma", "assay_type": "ADME, cell-free"}}, "note": "Several values for one entry are separate records, joined by “and”; a condition that tells them apart may be missing. Equal values may be shown once.", "data": [{"compound": "COc1cc(C23c4ccccc4C(=O)N2CCN3C(=O)c2ccc(OC(C)C)cc2)ccc1F", "note": "(racemic)", "values": [{"measurement": "IC50", "setting": "[1]", "value": 1.3, "unit": "µM"}]}, {"compound": "COc1cc(C23c4ccccc4C(=O)N2CCN3C(=O)c2ccc(OC(C)C)cc2)ccc1Cl", "note": "(racemic)", "values": [{"measurement": "IC50", "setting": "[1]", "value": 6.4, "unit": "µM"}]}, {"compound": "COc1cc(C23c4ccccc4C(=O)N2CCN3C(=O)c2ccc(OC(C)C)cc2)ccc1C", "note": "(racemic)", "values": [{"measurement": "IC50", "setting": "[1]", "value": 2.2, "unit": "µM"}]}, {"compound": "COc1ccccc1C(=O)N1CCN2C(=O)c3ccccc3C12c1ccc(Cl)cc1", "note": "(racemic)", "values": [{"measurement": "IC50", "setting": "[1]", "value": "> 10", "unit": "µM"}]}, {"compound": "COc1cccc(C(=O)N2CCN3C(=O)c4ccccc4C23c2ccc(Cl)cc2)c1", "note": "(racemic)", "values": [{"measurement": "IC50", "setting": "[1]", "value": 6.6, "unit": "µM"}]}, {"compound": "COc1ccc(C(=O)N2CCN3C(=O)c4ccccc4C23c2ccc(Cl)cc2)cc1", "note": "(racemic)", "values": [{"measurement": "IC50", "setting": "[1]", "value": 1.8, "unit": "µM"}]}, {"compound": "CCOc1ccc(C(=O)N2CCN3C(=O)c4ccccc4C23c2ccc(Cl)cc2)cc1", "note": "(racemic)", "values": [{"measurement": "IC50", "setting": "[1]", "value": 0.85, "unit": "µM"}]}, {"compound": "CC(C)Oc1ccc(C(=O)N2CCN3C(=O)c4ccccc4C23c2ccc(Cl)cc2)cc1", "note": "(racemic)", "values": [{"measurement": "IC50", "setting": "[1]", "value": 0.79, "unit": "µM"}]}, {"compound": "O=C(c1cc(F)c(F)c(F)c1)N1CCN2C(=O)c3ccccc3C12c1ccc(Cl)cc1", "note": "(racemic)", "values": [{"measurement": "IC50", "setting": "[1]", "value": 0.61, "unit": "µM"}]}, {"compound": "CN(C)c1ccc(C(=O)N2CCN3C(=O)c4ccccc4C23c2ccc(Cl)cc2)cc1", "note": "(racemic)", "values": [{"measurement": "IC50", "setting": "[1]", "value": "> 10", "unit": "µM"}]}, {"compound": "O=C(c1ccc(F)nc1)N1CCN2C(=O)c3ccccc3C12c1ccc(Cl)cc1", "note": "(racemic)", "values": [{"measurement": "IC50", "setting": "[1]", "value": "> 10", "unit": "µM"}]}, {"compound": "O=C(c1ccnc(F)c1)N1CCN2C(=O)c3ccccc3C12c1ccc(Cl)cc1", "note": "(racemic)", "values": [{"measurement": "IC50", "setting": "[1]", "value": 5.8, "unit": "µM"}]}, {"compound": "O=C(c1ccnnc1)N1CCN2C(=O)c3ccccc3C12c1ccc(Cl)cc1", "note": "(racemic)", "values": [{"measurement": "IC50", "setting": "[1]", "value": "> 10", "unit": "µM"}]}, {"compound": "O=C(c1cc(F)nc(F)c1)N1CCN2C(=O)c3ccccc3C12c1ccc(Cl)cc1", "note": "(racemic)", "values": [{"measurement": "IC50", "setting": "[1]", "value": "> 10", "unit": "µM"}]}, {"compound": "COc1ccccc1C12c3ccccc3C(=O)N1CCN2C(=O)c1ccc(F)c(F)c1", "note": "(racemic)", "values": [{"measurement": "IC50", "setting": "[1]", "value": "5.62 µM and 5.5 µM"}]}, {"compound": "COc1cccc(C23c4ccccc4C(=O)N2CCN3C(=O)c2ccc(F)c(F)c2)c1", "note": "(racemic)", "values": [{"measurement": "IC50", "setting": "[1]", "value": 1.6, "unit": "µM"}]}, {"compound": "COc1ccc(C23c4ccccc4C(=O)N2CCN3C(=O)c2ccc(F)c(F)c2)cc1", "note": "(racemic)", "values": [{"measurement": "IC50", "setting": "[1]", "value": 1.3, "unit": "µM"}, {"measurement": "Fu", "setting": "[2]", "value": 0.064}, {"measurement": "Fu", "setting": "[3]", "value": 0.037}]}, {"compound": "O=C(c1ccc(F)c(F)c1)N1CCN2C(=O)c3ccccc3C12c1ccc(Oc2ccccc2)cc1", "note": "(racemic)", "values": [{"measurement": "IC50", "setting": "[1]", "value": "> 10", "unit": "µM"}]}, {"compound": "O=C(c1ccc(F)c(F)c1)N1CCN2C(=O)c3ccccc3C12C1CCCCC1", "note": "(racemic)", "values": [{"measurement": "IC50", "setting": "[1]", "value": 2.1, "unit": "µM"}, {"measurement": "Fu", "setting": "[2]", "value": 0.016}, {"measurement": "Fu", "setting": "[3]", "value": 0.008}]}, {"compound": "O=C(c1ccc(F)c(F)c1)N1CCN2C(=O)c3ccccc3C12C1CCCC1", "note": "(racemic)", "values": [{"measurement": "IC50", "setting": "[1]", "value": 2.4, "unit": "µM"}]}, {"compound": "O=C(c1ccc(F)c(F)c1)N1CCN2C(=O)c3ccccc3C12C1CCC1", "note": "(racemic)", "values": [{"measurement": "IC50", "setting": "[1]", "value": "> 10", "unit": "µM"}]}, {"compound": "O=C(c1ccc(F)c(F)c1)N1CCN2C(=O)c3ccccc3C12C1CC1", "note": "(racemic)", "values": [{"measurement": "IC50", "setting": "[1]", "value": "> 10", "unit": "µM"}]}, {"compound": "O=C(c1ccc(F)c(F)c1)N1CCN2C(=O)c3ccccc3C12C1CCOCC1", "note": "(racemic)", "values": [{"measurement": "IC50", "setting": "[1]", "value": "> 10", "unit": "µM"}]}, {"compound": "O=C(c1ccc(F)c(F)c1)N1CCN2C(=O)c3ccccc3C12c1ccccn1", "note": "(racemic)", "values": [{"measurement": "IC50", "setting": "[1]", "value": "> 10", "unit": "µM"}]}, {"compound": "O=C(c1ccc(F)c(F)c1)N1CCN2C(=O)c3ccccc3C12c1cccnc1", "note": "(racemic)", "values": [{"measurement": "IC50", "setting": "[1]", "value": "> 10", "unit": "µM"}]}, {"compound": "O=C(c1ccc(F)c(F)c1)N1CCN2C(=O)c3ccccc3C12c1ccncc1", "note": "(racemic)", "values": [{"measurement": "IC50", "setting": "[1]", "value": "> 10", "unit": "µM"}]}, {"compound": "CCOc1ccc(C23c4ccccc4C(=O)N2CCN3C(=O)c2ccc(F)c(F)c2)cc1", "note": "(racemic)", "values": [{"measurement": "IC50", "setting": "[1]", "value": 3.2, "unit": "µM"}]}]}
